Results: patent publication US12053490B2, “Methods and compositions for treating CD33+ cancers and improving in vivo persistence of chimeric antigen receptor T cells” (ST. JUDE CHILDREN'S RESEARCH HOSPITAL, INC., priority 2017, dated 2024)

Test system: CD33 CAR T cells
Test: Inhibitor treatment during ex vivo culture
Type: cell-based, human
Settings: for total CD8^+ CAR T cells / T cell expansion: 4 days of inhibitor treatment; for proliferating CD8^+ cells that remained CCR7^+: CellTrace Violet, control T cells about 41%
Experimental: Inhibitor treatment during ex vivo culture: CD33 CAR or control transduced T cells were labeled with CellTrace Violet (ThermoFisher) 5 days after their initial activation. […] Cells were analyzed 4 days later by flow cytometry.
Day 1: Separated PBMCs from apheresis ring of donor. Enriched human T cells by Pan T cell negative selection kit. Activate human T cells by anti-human CD3 and anti-human CD28 (1 ug/ml) coated plates overnight.
Day2: Transduced human T cells with anti-CD33 CAR gamma-retrovirus or MSCV control by retronectin coated non-tissue culture plate.
Day3: Resuspend the cells and plate them in the IL-2 RPMI medium in the tissue culture plate.
100U/ml IL-2 was added to cultures every 2 days. Cells were analyzed 4 days later by flow Cytometry.

[1] = 4 days, LY294002 10 μM, IC87114 10 μM, API-2 1 μM, rapamycin 50 nM, PP242 1 μM, DCA 10 mM, vs untreated CD33 CAR T cells

SMILES	total CD8^+ CAR T cells / T cell expansion	percent of CD8^+ TN and TCM cells [1]	percentage of CCR7^+ cells among undivided CD8^+ cells (4 days)	CD8^+ TEM or TEFF cell numbers (4 days, 10 μM)	number of CD8^+ TN and TCM cells (4 days, same concentrations, vs untreated CD33 CAR T cells)	proliferating CD8^+ cells that remained CCR7^+ (4 days)	CD8^+ TEM or TEFF cell percent (Example 4: 4 days, different concentrations)	percent of CD8^+ TN and TCM cells (Example 4: 4 days, different concentrations, vs untreated CD33 CAR T cells)	number of CD8^+ TEFF cells (4 days, rapamycin 50 nM, PP242 1 μM)
O=C(O)C(Cl)Cl [DCA, dichloroacetic acid]	significantly inhibited T cell expansion	increased							
Cc1ccccc1-n1c(Cn2cnc3c(N)ncnc32)nc2cccc(C)c2c1=O [IC87114]		increased significantly	did not alter	did not significantly alter	increased significantly	~33%	significant decrease	increased significantly	
O=c1cc(N2CCOCC2)oc2c(-c3ccccc3)cccc12 [LY294002]						about 43%			
CC(C)n1nc(-c2cc3cc(O)ccc3[nH]2)c2c(N)ncnc21 [PP242]	substantial decrease	no detectable effect							decreased
